Source: patent US8119643B2, “Benzoimidazolyl-pyrazine compounds for inflammation and immune-related uses” (Synta Pharmaceuticals Corp., priority 2006, dated 2012)

system: IL-2 production; assay: Inhibition of IL-2 production in PHA-activated Jurkat cells (ELISA); type: cell-based; conditions: Homo sapiens, PHA 2.5 μg/mL, 20 hours, IL-2 ELISA
Description: Jurkat cells were placed in a 96 well plate (0.5 million cells per well in 1% FBS medium) then a test compound of this invention was added at different concentrations. After 10 minutes, the cells were activated with PHA (final concentration 2.5 μg/mL) and incubated for 20 hours at 37° C. under CO2. The final volume was 200 μL. Following incubation, the cells were centrifuged and the supernatants were collected and stored at −70° C. prior to assaying for IL-2 production. A commercial ELISA kit (IL-2 Eli-pair, Diaclone Research, Besancon, France) was used to detect production of IL-2, from which dose response curves were obtained. The IC50 value was calculated as the concentration at which 50% of maximum IL-2 production after stimulation was inhibited versus a non-stimulation control.

Row | Compound | IC50 [nM]
1 | COc1ccc2c(c1)nc(C(F)(F)F)n2-c1cnc(NC(=O)c2ccc(C(C)C)cc2)cn1 [Compound 141, 4-Isopropyl-N-[5-(5-methoxy-2-trifluoromethyl-benzoimidazol-1-yl)-pyrazin-2-yl]-benzamide] | > 1000
2 | COc1cccc(CNc2cnc(-n3c(C(F)(F)F)nc4cc(OC)ccc43)cn2)c1 [Compound 103, (3-Methoxy-benzyl)-[5-(5-methoxy-2-trifluoromethyl-benzoimidazol-1-yl)-pyrazin-2-yl]-amine] | > 1000
3 | COc1ccc(CNc2cnc(-n3c(C(F)(F)F)nc4cc(OC)ccc43)cn2)cc1 [Compound 90, (4-Methoxy-benzyl)-[5-(5-methoxy-2-trifluoromethyl-benzoimidazol-1-yl)-pyrazin-2-yl]-amine] | > 1000
4 | COc1ccc2c(c1)nc(C(F)(F)F)n2-c1cnc(NCc2ccccc2Cl)cn1 [Compound 87, (2-Chloro-benzyl)-[5-(5-methoxy-2-trifluoromethyl-benzoimidazol-1-yl)-pyrazin-2-yl]-amine] | > 1000
5 | COc1ccc2c(c1)nc(C(F)(F)F)n2-c1cnc(NCc2ccc(F)cc2)cn1 [Compound 89, (4-Fluoro-benzyl)-[5-(5-methoxy-2-trifluoromethyl-benzoimidazol-1-yl)-pyrazin-2-yl]-amine] | > 1000
6 | COc1ccc2c(c1)nc(C(F)(F)F)n2-c1cnc(NC(=O)c2cccc(C(F)(F)F)c2)cn1 [Compound 125, N-[5-(5-Methoxy-2-trifluoromethyl-benzoimidazol-1-yl)-pyrazin-2-yl]-3-trifluoromethyl-benzamide] | 780
7 | COc1ccc2c(c1)nc(C(F)(F)F)n2-c1cnc(NCc2c(F)cccc2Cl)cn1 [Compound 100, (2-Chloro-6-fluoro-benzyl)-[5-(5-methoxy-2-trifluoromethyl-benzoimidazol-1-yl)-pyrazin-2-yl]-amine] | 132
8 | COc1ccc2c(c1)nc(C(F)(F)F)n2-c1cnc(NCc2ccccc2)cn1 [Compound 115, Benzyl-[5-(5-methoxy-2-trifluoromethyl-benzoimidazol-1-yl)-pyrazin-2-yl]-amine] | > 1000

More lines, now with the values ahead:

Row | IC50 [nM] | Compound
9 | 130 | COc1ccc2c(c1)nc(C(F)(F)F)n2-c1cnc(NC(=O)c2cc(Br)ccc2F)cn1 [Compound 130, 5-Bromo-2-fluoro-N-[5-(5-methoxy-2-trifluoromethyl-benzoimidazol-1-yl)-pyrazin-2-yl]-benzamide]
10 | 98 | COc1ccc2c(c1)nc(C(F)(F)F)n2-c1cnc(NC(=O)c2cc(Cl)ccc2F)cn1 [Compound 148, 5-Chloro-2-fluoro-N-[5-(5-methoxy-2-trifluoromethyl-benzoimidazol-1-yl)-pyrazin-2-yl]-benzamide]
11 | 18 | COc1ccc2c(c1)nc(C(F)(F)F)n2-c1cnc(NC(=O)c2cc([N+](=O)[O-])ccc2C)cn1 [Compound 146, N-[5-(5-Methoxy-2-trifluoromethyl-benzoimidazol-1-yl)-pyrazin-2-yl]-2-methyl-5-nitro-benzamide]
12 | 99 | COc1ccc2c(c1)nc(C(F)(F)F)n2-c1cnc(NC(=O)c2ccccc2C(F)(F)F)cn1 [Compound 145, N-[5-(5-Methoxy-2-trifluoromethyl-benzoimidazol-1-yl)-pyrazin-2-yl]-2-trifluoromethyl-benzamide]
13 | 19 | COc1ccc2c(c1)nc(C(F)(F)F)n2-c1cnc(NC(=O)c2ccc(Cl)cc2Cl)cn1 [Compound 110, 2,4-Dichloro-N-[5-(5-methoxy-2-trifluoromethyl-benzoimidazol-1-yl)-pyrazin-2-yl]-benzamide]
14 | 57 | COc1ccc2c(c1)nc(C(F)(F)F)n2-c1cnc(NC(=O)c2cccc(Br)c2)cn1 [Compound 108, 3-Bromo-N-[5-(5-methoxy-2-trifluoromethyl-benzoimidazol-1-yl)-pyrazin-2-yl]-benzamide]
15 | 81 | CCCCc1ccc(C(=O)Nc2cnc(-n3c(C(F)(F)F)nc4cc(OC)ccc43)cn2)cc1 [Compound 117, 4-Butyl-N-[5-(5-methoxy-2-trifluoromethyl-benzoimidazol-1-yl)-pyrazin-2-yl]-benzamide]
